Legend:
Test in all cases: cells
Conditions in all cases: Homo sapiens
COLO-800 = format: functional, cell-based;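 further: growth inhibition of COLO-800 cells, read out with a cell viability assay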
Description: SANGER: Inhibition of human COLO-800 cell growth in a cell viability assay.

Calu-6 = format: functional, cell-based;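 further: growth of human Calu-6 cells, read out by a cell viability assay, IC50 marking inhibition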
Description: SANGER: Inhibition of human Calu-6 cell growth in a cell viability assay.

DB = format: functional, cell-based
Description: SANGER: Inhibition of human DB cell growth in a cell viability assay.

DEL = format: functional, cell-based;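 further: growth inhibition of the human DEL cell line, read out with a cell viability assay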
Description: SANGER: Inhibition of human DEL cell growth in a cell viability assay.

EKVX = format: functional, cell-based;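 further: growth inhibition of human EKVX cells, read out with a cell viability assay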
Description: SANGER: Inhibition of human EKVX cell growth in a cell viability assay.

EM-2 = format: functional, cell-based;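 further: growth inhibition of EM-2 cells, read out with a cell viability assay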
Description: SANGER: Inhibition of human EM-2 cell growth in a cell viability assay.

EW-11 = format: functional, cell-based;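 further: growth inhibition of human EW-11 cells, measured with a cell viability assay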
Description: SANGER: Inhibition of human EW-11 cell growth in a cell viability assay.

EW-16 = format: functional, cell-based;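 further: growth inhibition of human EW-16 cells, read out as cell viability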
Description: SANGER: Inhibition of human EW-16 cell growth in a cell viability assay.

EW-24 = format: functional, cell-based;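 further: human EW-24 cancer cell line, growth inhibition read out via a cell viability assay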
Description: SANGER: Inhibition of human EW-24 cell growth in a cell viability assay.

EW-3 = format: functional, cell-based;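 further: cell viability assay read-out, IC50 reflects inhibition of growth of the EW-3 cells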
Description: SANGER: Inhibition of human EW-3 cell growth in a cell viability assay.

GAK = format: functional, cell-based;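 further: cell growth inhibition read out by a cell viability assay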
Description: SANGER: Inhibition of human GAK cell growth in a cell viability assay.

GOTO = format: functional, cell-based;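 further: growth inhibition of GOTO cells, read out by a cell viability assay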
Description: SANGER: Inhibition of human GOTO cell growth in a cell viability assay.

GR-ST = format: functional, cell-based
Description: SANGER: Inhibition of human GR-ST cell growth in a cell viability assay.

HC-1 = format: functional, cell-based;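 further: growth inhibition of HC-1 cells measured by a cell viability assay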
Description: SANGER: Inhibition of human HC-1 cell growth in a cell viability assay.

HD-MY-Z = format: functional, cell-based;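 further: growth inhibition of HD-MY-Z cells, read out with a cell viability assay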
Description: SANGER: Inhibition of human HD-MY-Z cell growth in a cell viability assay.

HT-144 = format: functional, cell-based
Description: SANGER: Inhibition of human HT-144 cell growth in a cell viability assay.

IA-LM = format: functional, cell-based;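 further: cell viability assay measuring growth inhibition of human IA-LM cells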
Description: SANGER: Inhibition of human IA-LM cell growth in a cell viability assay.

K562 = format: functional, cell-based
Description: SANGER: Inhibition of human K-562 cell growth in a cell viability assay.

KALS-1 = format: functional, cell-based;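 further: growth inhibition of KALS-1 cells, determined with a cell viability assay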
Description: SANGER: Inhibition of human KALS-1 cell growth in a cell viability assay.

KARPAS-299 = format: functional, cell-based
Description: SANGER: Inhibition of human KARPAS-299 cell growth in a cell viability assay.

KGN = format: functional, cell-based;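 further: growth inhibition of KGN cells, read out with a cell viability assay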
Description: SANGER: Inhibition of human KGN cell growth in a cell viability assay.

KINGS-1 = format: functional, cell-based;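 further: cell viability assay measuring suppression of KINGS-1 cell growth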
Description: SANGER: Inhibition of human KINGS-1 cell growth in a cell viability assay.

KLE = format: functional, cell-based;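 further: growth inhibition of human KLE cells, read out with a cell viability assay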
Description: SANGER: Inhibition of human KLE cell growth in a cell viability assay.

KNS-81-FD = format: functional, cell-based;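 further: growth inhibition of KNS-81-FD cells, read out with a cell viability assay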
Description: SANGER: Inhibition of human KNS-81-FD cell growth in a cell viability assay.

L-363 = format: functional, cell-based
Description: SANGER: Inhibition of human L-363 cell growth in a cell viability assay.

LB373-MEL-D = format: functional, cell-based;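 further: growth inhibition of the cell line, read out in a cell viability assay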
Description: SANGER: Inhibition of human LB373-MEL-D cell growth in a cell viability assay.

LC-2-ad = format: functional, cell-based;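 further: growth inhibition of human LC-2-ad cells, read out with a cell viability assay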
Description: SANGER: Inhibition of human LC-2-ad cell growth in a cell viability assay.

LOX IMVI = format: functional, cell-based
Description: SANGER: Inhibition of human LOXIMVI cell growth in a cell viability assay.

ML-2 = format: functional, cell-based;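 further: growth inhibition of ML-2 cells, measured with a cell viability readout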
Description: SANGER: Inhibition of human ML-2 cell growth in a cell viability assay.

MS-1 = format: functional, cell-based;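 further: growth inhibition of MS-1 cells, read out by cell viability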
Description: SANGER: Inhibition of human MS-1 cell growth in a cell viability assay.

MZ1-PC = format: functional, cell-based;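 further: cell viability assay measuring growth inhibition of human MZ1-PC cells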
Description: SANGER: Inhibition of human MZ1-PC cell growth in a cell viability assay.

MZ7-mel = format: functional, cell-based;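 further: growth inhibition of human MZ7-mel cells, measured by a cell viability assay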
Description: SANGER: Inhibition of human MZ7-mel cell growth in a cell viability assay.

NB5 = format: functional, cell-based;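 further: growth inhibition of NB5 cells, read out as cell viability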
Description: SANGER: Inhibition of human NB5 cell growth in a cell viability assay.

NCI-H1092 = format: functional, cell-based;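 further: cell growth inhibition measured with a cell viability assay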
Description: SANGER: Inhibition of human NCI-H1092 cell growth in a cell viability assay.

NCI-H1155 = format: functional, cell-based;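 further: cell growth inhibition measured by a viability assay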
Description: SANGER: Inhibition of human NCI-H1155 cell growth in a cell viability assay.

NCI-H1355 = format: functional, cell-based;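 further: growth inhibition of human NCI-H1355 cells, read out by a cell viability assay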
Description: SANGER: Inhibition of human NCI-H1355 cell growth in a cell viability assay.

NCI-H1395 = format: functional, cell-based;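 further: cell viability assay read-out quantifying reduced proliferation of human NCI-H1395 cells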
Description: SANGER: Inhibition of human NCI-H1395 cell growth in a cell viability assay.

NCI-H1648 = format: functional, cell-based;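 further: cell viability assay measuring inhibition of NCI-H1648 cell growth, from the Sanger screening data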
Description: SANGER: Inhibition of human NCI-H1648 cell growth in a cell viability assay.

NCI-H1650 = format: functional, cell-based;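 further: growth inhibition of human NCI-H1650 cells measured by a cell viability assay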
Description: SANGER: Inhibition of human NCI-H1650 cell growth in a cell viability assay.

NCI-H1838 = format: functional, cell-based;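 further: growth inhibition of NCI-H1838 cells, determined with a cell viability readout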
Description: SANGER: Inhibition of human NCI-H1838 cell growth in a cell viability assay.

NCI-H2126 = format: functional, cell-based;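 further: growth inhibition of the cancer cell line, determined with a cell viability readout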
Description: SANGER: Inhibition of human NCI-H2126 cell growth in a cell viability assay.

NCI-H226 = format: functional, cell-based;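 further: cell viability read-out used to gauge growth inhibition of the cells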
Description: SANGER: Inhibition of human NCI-H226 cell growth in a cell viability assay.

NCI-H23 = format: functional, cell-based;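 further: cell viability assay measuring growth inhibition of NCI-H23 cells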
Description: SANGER: Inhibition of human NCI-H23 cell growth in a cell viability assay.

NEC8 = format: functional, cell-based;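 further: growth inhibition of human NEC8 cells, read out by a cell viability assay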
Description: SANGER: Inhibition of human NEC8 cell growth in a cell viability assay.

RKO = format: functional, cell-based;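 further: growth inhibition of human RKO cells, read out with a cell viability assay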
Description: SANGER: Inhibition of human RKO cell growth in a cell viability assay.

RXF 393 = format: functional, cell-based;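 further: growth inhibition of human RXF 393 cells, read out with a cell viability assay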
Description: SANGER: Inhibition of human RXF393 cell growth in a cell viability assay.

SBC-1 = format: functional, cell-based;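 further: cell viability assay measuring growth inhibition of the SBC-1 cell line, IC50 being the concentration that halves growth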
Description: SANGER: Inhibition of human SBC-1 cell growth in a cell viability assay.

SF-126 = format: functional, cell-based;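 further: growth inhibition of human SF126 cells, read out with a cell viability assay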
Description: SANGER: Inhibition of human SF126 cell growth in a cell viability assay.

SH-4 = format: functional, cell-based;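 further: growth inhibition of SH-4 cells, read out with a cell viability assay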
Description: SANGER: Inhibition of human SH-4 cell growth in a cell viability assay.

SK-N-DZ = format: functional, cell-based;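 further: growth inhibition of the cancer cell line, read out through a viability assay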
Description: SANGER: Inhibition of human SK-N-DZ cell growth in a cell viability assay.

SK-NEP-1 = format: functional, cell-based;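 further: growth inhibition of human SK-NEP-1 cells, read out by a cell viability assay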
Description: SANGER: Inhibition of human SK-NEP-1 cell growth in a cell viability assay.

SK-PN-DW = format: functional, cell-based;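 further: growth inhibition measured with a viability assay on these cells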
Description: SANGER: Inhibition of human SK-PN-DW cell growth in a cell viability assay.

SW 962 = format: functional, cell-based;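 further: growth inhibition of human SW962 cells, read out by a cell viability assay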
Description: SANGER: Inhibition of human SW962 cell growth in a cell viability assay.

A101D = format: functional, cell-based;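 further: growth inhibition of the cell line, measured with a viability assay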
Description: SANGER: Inhibition of human A101D cell growth in a cell viability assay.

TE-12 = format: functional, cell-based;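 further: growth inhibition of TE-12 cells, read out by a cell viability assay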
Description: SANGER: Inhibition of human TE-12 cell growth in a cell viability assay.

TE-5 = format: functional, cell-based
Description: SANGER: Inhibition of human TE-5 cell growth in a cell viability assay.

TE-8 = format: functional, cell-based
Description: SANGER: Inhibition of human TE-8 cell growth in a cell viability assay.

TE-9 = format: functional, cell-based
Description: SANGER: Inhibition of human TE-9 cell growth in a cell viability assay.

TGBC1TKB = format: functional, cell-based
Description: SANGER: Inhibition of human TGBC1TKB cell growth in a cell viability assay.

TK-10 = format: functional, cell-based
Description: SANGER: Inhibition of human TK10 cell growth in a cell viability assay.

U-87 MG = format: functional, cell-based, U-87MG ATCC
Description: SANGER: Inhibition of human U-87-MG cell growth in a cell viability assay.

VA-ES-BJ = format: functional, cell-based
Description: SANGER: Inhibition of human VA-ES-BJ cell growth in a cell viability assay.

no-10 = format: functional, cell-based
Description: SANGER: Inhibition of human no-10 cell growth in a cell viability assay.

no-11 = format: functional, cell-based
Description: SANGER: Inhibition of human no-11 cell growth in a cell viability assay.

CGTH-W-1 = format: functional, cell-based
Description: SANGER: Inhibition of human CGTH-W-1 cell growth in a cell viability assay.

COLO-668 = format: functional, cell-based
Description: SANGER: Inhibition of human COLO-668 cell growth in a cell viability assay.

Cc1n[nH]c2ccc(-c3cncc(OC[C@@H](N)Cc4c[nH]c5ccccc45)c3)cc12 [A-443654]
IC50 (COLO-800): > 1.02 µM
IC50 (Calu-6): 0.137 µM
IC50 (DB): 0.375 µM
IC50 (DEL): 0.231 µM
IC50 (EKVX): > 1.02 µM
IC50 (EM-2): 0.583 µM
IC50 (EW-11): > 1.02 µM
IC50 (EW-16): 0.216 µM
IC50 (EW-24): 0.837 µM
IC50 (EW-3): > 1.02 µM
IC50 (GAK): > 1.02 µM
IC50 (GOTO): 0.366 µM
IC50 (GR-ST): 0.448 µM
IC50 (HC-1): 0.208 µM
IC50 (HD-MY-Z): > 1.02 µM
IC50 (HT-144): 0.153 µM
IC50 (IA-LM): 0.2 µM
IC50 (K562): 0.385 µM
IC50 (KALS-1): 0.203 µM
IC50 (KARPAS-299): 0.473 µM
IC50 (KGN): 0.118 µM
IC50 (KINGS-1): 0.292 µM
IC50 (KLE): 0.226 µM
IC50 (KNS-81-FD): > 1.02 µM
IC50 (L-363): 0.153 µM
IC50 (LB373-MEL-D): 0.531 µM
IC50 (LC-2-ad): 0.0222 µM
IC50 (LOX IMVI): 0.797 µM
IC50 (ML-2): 0.192 µM
IC50 (MS-1): > 1.02 µM
IC50 (MZ1-PC): 0.0795 µM
IC50 (MZ7-mel): 0.564 µM
IC50 (NB5): 0.665 µM
IC50 (NCI-H1092): 0.938 µM
IC50 (NCI-H1155): 0.564 µM
IC50 (NCI-H1355): 0.113 µM
IC50 (NCI-H1395): > 1.02 µM
IC50 (NCI-H1648): 0.183 µM
IC50 (NCI-H1650): > 1.02 µM
IC50 (NCI-H1838): > 1.02 µM
IC50 (NCI-H2126): 0.309 µM
IC50 (NCI-H226): > 1.02 µM
IC50 (NCI-H23): > 1.02 µM
IC50 (NEC8): > 1.02 µM
IC50 (RKO): 0.136 µM
IC50 (RXF 393): 0.657 µM
IC50 (SBC-1): 0.16 µM
IC50 (SF-126): 0.311 µM
IC50 (SH-4): 0.185 µM
IC50 (SK-N-DZ): > 1.02 µM
IC50 (SK-NEP-1): 0.519 µM
IC50 (SK-PN-DW): 0.222 µM
IC50 (SW 962): 0.255 µM
IC50 (A101D): 0.133 µM
IC50 (TE-12): 0.194 µM
IC50 (TE-5): 0.169 µM
IC50 (TE-8): 0.137 µM
IC50 (TE-9): 0.389 µM
IC50 (TGBC1TKB): 0.12 µM
IC50 (TK-10): 0.226 µM
IC50 (U-87 MG): > 1.02 µM
IC50 (VA-ES-BJ): 0.129 µM
IC50 (no-10): 0.129 µM
IC50 (no-11): 0.13 µM
IC50 (CGTH-W-1): 0.246 µM
IC50 (COLO-668): 0.405 µM

CC(O)(CS(=O)(=O)c1ccc(F)cc1)C(=O)Nc1ccc(C#N)c(C(F)(F)F)c1 (configuration not stated) [BICALUTAMIDE]
IC50 (COLO-800): > 1.02 µM
IC50 (Calu-6): > 1.02 µM
IC50 (DB): > 1.02 µM
IC50 (DEL): > 1.02 µM
IC50 (EKVX): > 1.02 µM
IC50 (EM-2): > 1.02 µM
IC50 (EW-11): > 1.02 µM
IC50 (EW-16): > 1.02 µM
IC50 (EW-24): > 1.02 µM
IC50 (EW-3): > 1.02 µM
IC50 (GAK): > 1.02 µM
IC50 (GOTO): > 1.02 µM
IC50 (GR-ST): > 1.02 µM
IC50 (HC-1): > 1.02 µM
IC50 (HD-MY-Z): > 1.02 µM
IC50 (HT-144): > 1.02 µM
IC50 (IA-LM): > 1.02 µM
IC50 (K562): > 1.02 µM
IC50 (KALS-1): > 1.02 µM
IC50 (KARPAS-299): > 1.02 µM
IC50 (KGN): > 1.02 µM
IC50 (KINGS-1): > 1.02 µM
IC50 (KLE): > 1.02 µM
IC50 (KNS-81-FD): > 1.02 µM
IC50 (L-363): > 1.02 µM
IC50 (LB373-MEL-D): > 1.02 µM
IC50 (LC-2-ad): > 1.02 µM
IC50 (LOX IMVI): > 1.02 µM
IC50 (ML-2): > 1.02 µM
IC50 (MS-1): > 1.02 µM
IC50 (MZ1-PC): > 1.02 µM
IC50 (MZ7-mel): > 1.02 µM
IC50 (NB5): > 1.02 µM
IC50 (NCI-H1092): > 1.02 µM
IC50 (NCI-H1155): > 1.02 µM
IC50 (NCI-H1355): > 1.02 µM
IC50 (NCI-H1395): > 1.02 µM
IC50 (NCI-H1648): > 1.02 µM
IC50 (NCI-H1650): > 1.02 µM
IC50 (NCI-H1838): > 1.02 µM
IC50 (NCI-H2126): > 1.02 µM
IC50 (NCI-H226): > 1.02 µM
IC50 (NCI-H23): > 1.02 µM
IC50 (NEC8): > 1.02 µM
IC50 (RKO): > 1.02 µM
IC50 (RXF 393): > 1.02 µM
IC50 (SBC-1): > 1.02 µM
IC50 (SF-126): > 1.02 µM
IC50 (SH-4): > 1.02 µM
IC50 (SK-N-DZ): > 1.02 µM
IC50 (SK-NEP-1): > 1.02 µM
IC50 (SK-PN-DW): > 1.02 µM
IC50 (SW 962): > 1.02 µM
IC50 (A101D): > 1.02 µM
IC50 (TE-12): > 1.02 µM
IC50 (TE-5): > 1.02 µM
IC50 (TE-8): > 1.02 µM
IC50 (TE-9): > 1.02 µM
IC50 (TGBC1TKB): > 1.02 µM
IC50 (TK-10): > 1.02 µM
IC50 (U-87 MG): > 1.02 µM
IC50 (VA-ES-BJ): > 1.02 µM
IC50 (no-10): > 1.02 µM
IC50 (no-11): > 1.02 µM
IC50 (CGTH-W-1): > 1.02 µM
IC50 (COLO-668): > 1.02 µM
